Measured values published in ChEMBL document CHEMBL1149774, “Synthesis of N-(5,7-diamino-3-phenyl-quinoxalin-2-yl)-3,4,5-substituted anilines and N-[4[(5,7-diamino-3-phenylquinoxalin-2-yl)amino]benzoyl]-l-glutamic acid diethyl ester: evaluation of in vitro anti-cancer and anti-folate activities” (Eur J Med Chem, 2008).
pKi: −log10 of the molar value.

Columns and labels:
HOP-92 = experiment: Growth inhibition of human HOP92 cells after 48 hrs by SRB staining method; assay type: functional; settings: HOP-92, 48 h
NCI-H322M = experiment: Growth inhibition of human NCI-H322M cells after 48 hrs by SRB staining method; assay type: functional
NCI-H460 = experiment: Growth inhibition of human NCI-H460 cells after 48 hrs by SRB staining method; assay type: functional; settings: NCI-H460, 48 h
COLO 205 = experiment: Growth inhibition of human COLO205 cells after 48 hrs by SRB staining method; assay type: functional; settings: COLO 205, 48 h
HCC 2998 = experiment: Growth inhibition of human HCC2998 cells after 48 hrs by SRB staining method; assay type: functional; settings: HCC 2998, 48 h
KM12 = experiment: Growth inhibition of human KM12 cells after 48 hrs by SRB staining method; assay type: functional; settings: KM12, 48 h
SNB-75 = experiment: Growth inhibition of human SNB75 cells after 48 hrs by SRB staining method; assay type: functional; settings: SNB-75, 48 h
LOX IMVI = experiment: Growth inhibition of human LOX IMVI cells after 48 hrs by SRB staining method; assay type: functional
Malme-3M = experiment: Growth inhibition of human MALME-3M cells after 48 hrs by SRB staining method; assay type: functional
M14 = experiment: Growth inhibition of human M14 cells after 48 hrs by SRB staining method; assay type: functional; settings: M14, 48 h
SK-MEL-28 = experiment: Growth inhibition of human SK-MEL-28 cells after 48 hrs by SRB staining method; assay type: functional; settings: SK-MEL-28, 48 h
SK-MEL-5 = experiment: Growth inhibition of human SK-MEL-5 cells after 48 hrs by SRB staining method; assay type: functional; settings: SK-MEL-5, 48 h
UACC-257 = experiment: Growth inhibition of human UACC257 cells after 48 hrs by SRB staining method; assay type: functional; settings: UACC-257, 48 h
OVCAR-8 = experiment: Growth inhibition of human OVCAR8 cells after 48 hrs by SRB staining method; assay type: functional; settings: OVCAR-8, 48 h
SK-OV-3 = experiment: Growth inhibition of human SKOV3 cells after 48 hrs by SRB staining method; assay type: functional; settings: SK-OV-3, 48 h
A498 = experiment: Growth inhibition of human A498 cells after 48 hrs by SRB staining method; assay type: functional; settings: A498, 48 h
MCF7 = experiment: Growth inhibition of human MCF7 cells after 48 hrs by SRB staining method; assay type: functional; settings: MCF7, 48 h
MDA-MB-231 = experiment: Growth inhibition of human MDA-MB-231 cells after 48 hrs by SRB staining method; assay type: functional; settings: MDA-MB-231, 48 h
MDA-MB-435 = experiment: Growth inhibition of human MDA-MB-435 cells after 48 hrs by SRB staining method; assay type: functional; settings: MDA-MB-435, 48 h
BT-549 = experiment: Growth inhibition of human BT549 cells after 48 hrs by SRB staining method; assay type: functional; settings: BT-549, 48 h
Dihydrofolate reductase = biological target: T1, Dihydrofolate reductase (Homo sapiens, UniProt P00374); experiment: Inhibition of human dihydrofolate reductase
T1 sequence (P00374 whole entry): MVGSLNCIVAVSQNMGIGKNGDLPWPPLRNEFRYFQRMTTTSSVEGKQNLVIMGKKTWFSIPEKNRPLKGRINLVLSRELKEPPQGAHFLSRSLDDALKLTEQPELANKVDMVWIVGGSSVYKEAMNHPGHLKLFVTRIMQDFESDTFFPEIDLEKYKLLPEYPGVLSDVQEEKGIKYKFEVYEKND

MDA-N = experiment: Growth inhibition of human MDA-N cells after 48 hrs by SRB staining method; assay type: functional
A549 = experiment: Growth inhibition of human A549 cells after 48 hrs by SRB staining method; assay type: functional; settings: A549, 48 h
SR = experiment: Growth inhibition of human SR cells after 48 hrs by SRB staining method; assay type: functional
Thymidylate synthase = Thymidylate synthase (Homo sapiens, UniProt P04818)
Thymidylate synthase, sequence (P04818 whole entry): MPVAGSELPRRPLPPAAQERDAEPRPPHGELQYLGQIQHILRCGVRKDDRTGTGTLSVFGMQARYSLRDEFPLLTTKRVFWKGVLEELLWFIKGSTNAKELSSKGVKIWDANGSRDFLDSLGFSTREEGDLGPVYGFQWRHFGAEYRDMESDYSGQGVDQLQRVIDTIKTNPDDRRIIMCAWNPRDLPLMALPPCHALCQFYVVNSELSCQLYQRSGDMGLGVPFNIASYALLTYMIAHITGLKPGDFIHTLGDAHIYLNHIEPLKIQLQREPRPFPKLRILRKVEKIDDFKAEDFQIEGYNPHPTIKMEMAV
Description: Inhibition of human thymidylate synthase

[1] = read-out: pLC50 (the source's name) (converted)

COc1ccc(Nc2nc3cc(N)cc(N)c3nc2-c2ccccc2)cc1
GI50 (HOP-92): 20 µM | LC50 (HOP-92): > 100 µM | TGI (HOP-92; read-out: pTGI (converted)): 52.5 µM | GI50 (NCI-H322M): 23.4 µM | LC50 (NCI-H322M): > 100 µM | TGI (NCI-H322M; read-out: pTGI (converted)): 83.2 µM | GI50 (NCI-H460): 26.9 µM | LC50 (concentration killing 50% of cells) (NCI-H460): > 100 µM | TGI (NCI-H460; read-out: pTGI (converted)): 89.1 µM | GI50 (COLO 205): 15.8 µM | LC50 (COLO 205): 53.7 µM | TGI (COLO 205; read-out: pTGI (converted)): 29.5 µM | GI50 (HCC 2998): 28.2 µM | LC50 (HCC 2998): > 100 µM | TGI (HCC 2998; read-out: pTGI (converted)): > 100 µM | GI50 (KM12): 15.8 µM | LC50 (KM12): 60.3 µM | TGI (KM12; read-out: pTGI (converted)): 30.9 µM | GI50 (SNB-75): 14.5 µM | LC50 (SNB-75): > 100 µM | TGI (SNB-75; read-out: pTGI (converted)): 42.7 µM | GI50 (LOX IMVI): 16.2 µM | LC50 (LOX IMVI): 55 µM | TGI (LOX IMVI; read-out: pTGI (converted)): 29.5 µM | GI50 (Malme-3M): 15.1 µM | LC50 (Malme-3M): 53.7 µM | TGI (Malme-3M; read-out: pTGI (converted)): 28.2 µM | GI50 (M14): 17.8 µM | LC50 (M14): 75.9 µM | TGI (M14; read-out: pTGI (converted)): 36.3 µM | GI50 (SK-MEL-28): 17 µM | CC50 (SK-MEL-28; [1]): 55 µM | TGI (SK-MEL-28; read-out: pTGI (converted)): 30.2 µM | GI50 (SK-MEL-5): 15.1 µM | LC50 (SK-MEL-5): 53.7 µM | TGI (SK-MEL-5; read-out: pTGI (converted)): 28.8 µM | GI50 (UACC-257): 15.1 µM | LC50 (UACC-257): 52.5 µM | TGI (UACC-257; read-out: pTGI (converted)): 27.5 µM | GI50 (OVCAR-8): 13.8 µM | CC50 (OVCAR-8; [1]): 67.6 µM | TGI (OVCAR-8; read-out: pTGI (converted)): 30.9 µM | GI50 (SK-OV-3): 33.1 µM | CC50 (SK-OV-3; [1]): > 100 µM | TGI (SK-OV-3; read-out: pTGI (converted)): 97.7 µM | CC50 (A498; [1]): > 100 µM | TGI (A498; read-out: pTGI (converted)): > 100 µM | GI50 (MCF7): 14.8 µM | CC50 (MCF7; [1]): 52.5 µM | TGI (MCF7; read-out: pTGI (converted)): 28.2 µM | GI50 (MDA-MB-231): 11.5 µM | CC50 (MDA-MB-231; [1]): 55 µM | TGI (MDA-MB-231; read-out: pTGI (converted)): 25.1 µM | GI50 (MDA-MB-435): 16.6 µM | CC50 (MDA-MB-435; [1]): 55 µM | TGI (MDA-MB-435; read-out: pTGI (converted)): 30.2 µM | GI50 (BT-549): 13.5 µM | CC50 (BT-549; [1]): 75.9 µM | TGI (BT-549; read-out: pTGI (converted)): 31.6 µM | pKi (Dihydrofolate reductase): 5.74 | GI50 (MDA-N): 21.4 µM | CC50 (MDA-N; [1]): 60.3 µM | TGI (MDA-N; read-out: pTGI (converted)): 36.3 µM | GI50 (A549): 27.5 µM | CC50 (A549; [1]): > 100 µM | TGI (A549; read-out: pTGI (converted)): > 100 µM | GI50 (SR): 19.1 µM | CC50 (SR; [1]): > 100 µM | TGI (SR; read-out: pTGI (converted)): > 100 µM | pKi (Thymidylate synthase): 5.22
